Laboratory results published in patent US12655116B2, “Substituted isophthalic acid diamides” (Bayer Aktiengesellschaft, priority 2020, dated 2026).

What was measured:
MATIN [1] = assay: Post-emergence herbicidal action against MATIN; type: in vivo, Matricaria inodora
Method in brief: (§1)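 Sandy loam, greenhouse; treatment 2–3 weeks after sowing, one-leaf stage. Aqueous suspension or emulsion from WP/EC sprayed on foliage (600–800 l/ha, 0.2% wetting agent). Readout: visual % action, ~3 weeks.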

ECHCG [2] = assay: Post-emergence herbicidal action against ECHCG; type: in vivo, Echinochloa crus-galli
Method in brief: as §1

ALOMY [3] = assay: Post-emergence herbicidal action against ALOMY; type: in vivo, Alopecurus myosuroides; details: dosage 20 g/ha, visual assessment about 3 weeks after treatment vs untreated controls
Method in brief: as §1

POLCO = assay: Pre-emergence herbicidal action against POLCO; type: in vivo, Polygonum convolvulus
Method in brief: (§2)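 Seeds sown in sandy loam, soil-covered; compound sprayed on soil surface pre-emergence. Application: WP/EC, 600–800 l/ha, 0.2% wetting agent. Readout: visual % damage at 3 weeks.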

VIOTR [4] = assay: Post-emergence herbicidal action against VIOTR; type: in vivo, Viola tricolor; details: 20 g/ha
Method in brief: as §1

VERPE [5] = assay: Post-emergence herbicidal action against VERPE; type: in vivo, Veronica persica
Method in brief: as §1

ABUTH [6] = assay: Post-emergence herbicidal action against ABUTH; type: in vivo, Abutilon theophrasti; details: visual assessment about 3 weeks after treatment vs untreated controls
Method in brief: as §1

ECHCG [7] = assay: Pre-emergence herbicidal action against ECHCG; type: in vivo, Echinochloa crus-galli; details: 80 g/ha
Method in brief: as §2

AVEFA = assay: Pre-emergence herbicidal action against AVEFA; type: in vivo, Avena fatua; details: 80 g/ha, pre-emergence
Method in brief: as §2

MATIN [8] = assay: Pre-emergence herbicidal action against MATIN; type: in vivo, Matricaria inodora
Method in brief: as §2

PHBPU [9] = assay: Post-emergence herbicidal action against PHBPU; type: in vivo, Pharbitis purpurea
Method in brief: as §1

VIOTR [10] = assay: Pre-emergence herbicidal action against VIOTR; type: in vivo, Viola tricolor
Method in brief: as §2

SETVI [11] = assay: Post-emergence herbicidal action against SETVI; type: in vivo, Setaria viridis
Method in brief: as §1

ABUTH [12] = assay: Pre-emergence herbicidal action against ABUTH; type: in vivo, Abutilon theophrasti; details: for Pre-emergence action against ABUTH (herbicidal activity): 80 g/ha, scored visually after 3 weeks vs untreated controls (100% = plants have died, 0% = like control plants); for Pre-emergence action against ABUTH (herbicidal activity in percent): dosage 20 g/ha, scored visually after 3 weeks vs untreated controls, 100% = plants have died, 0% = like control plants
Method in brief: as §2

AMARE [13] = assay: Post-emergence herbicidal action against AMARE; type: in vivo, Amaranthus retroflexus; details: 20 g/ha, visual assessment about 3 weeks after treatment, 100% = plants have died, 0% = like control plants
Method in brief: as §1

AMARE [14] = assay: Pre-emergence herbicidal action against AMARE; type: in vivo, Amaranthus retroflexus
Method in brief: as §2

ALOMY [15] = assay: Pre-emergence herbicidal action against ALOMY; type: in vivo, Alopecurus myosuroides; details: for Pre-emergence action against ALOMY: 20 g/ha, scored visually after 3 weeks, 100% = plants have died, 0% = like control plants; for Pre-emergence action against ALOMY (herbicidal activity): 80 g/ha, scored visually after 3 weeks vs untreated controls (100% = plants have died, 0% = like control plants)
Method in brief: as §2

PHBPU [16] = assay: Pre-emergence herbicidal action against PHBPU; type: in vivo, Pharbitis purpurea; details: dosage 80 g/ha
Method in brief: as §2

SETVI [17] = assay: Pre-emergence herbicidal action against SETVI; type: in vivo, Setaria viridis; details: dosage 80 g/ha
Method in brief: as §2

VERPE [18] = assay: Pre-emergence herbicidal action against VERPE; type: in vivo, Veronica persica
Method in brief: as §2

[19] = 20 g/ha, scored visually after 3 weeks vs untreated controls, 100% = plants have died, 0% = like control plants
[20] = 80 g/ha, scored visually after 3 weeks vs untreated controls (100% = plants have died, 0% = like control plants)

| Compound | Post-emergence action against MATIN in % (MATIN [1]; dosage 20 g/ha) | Post-emergence action against ECHCG in % (ECHCG [2]; dosage 20 g/ha) | Post-emergence action against ALOMY in % (ALOMY [3]) | Pre-emergence action against POLCO in % (POLCO; dosage 80 g/ha) | Post-emergence action against VIOTR in % (VIOTR [4]) | Post-emergence action against VERPE in % (VERPE [5]; 20 g/ha) | Post-emergence action against ABUTH in % (ABUTH [6]; dosage 20 g/ha) | Pre-emergence action against ECHCG in % (ECHCG [7]) | Pre-emergence action against MATIN in % (MATIN [8]; dosage 20 g/ha) | Pre-emergence action against MATIN in % (MATIN [8]; dosage 80 g/ha) | Post-emergence action against PHBPU in % (PHBPU [9]; dosage 20 g/ha) | Pre-emergence action against VIOTR in % (VIOTR [10]; dosage 20 g/ha) | Pre-emergence action against VIOTR in % (VIOTR [10]; dosage 80 g/ha) | Post-emergence action against SETVI in % (SETVI [11]; dosage 20 g/ha) | Pre-emergence action against ABUTH (herbicidal activity) (ABUTH [12]) | Pre-emergence action against ABUTH (herbicidal activity in percent) (ABUTH [12]) | Post-emergence action at 20 g/ha against AMARE in % (AMARE [13]) | Pre-emergence action against AMARE in % (AMARE [14]; [19]) | Pre-emergence action against AMARE in % (AMARE [14]; [20]) | Pre-emergence action against ALOMY (ALOMY [15]) | further results |
| --- | --- | --- | --- | --- | --- | --- | --- | --- | --- | --- | --- | --- | --- | --- | --- | --- | --- | --- | --- | --- | --- |
| CCc1c(C(=O)Nc2nnnn2C)ccc(C(F)(F)F)c1C(=O)NCC(F)F [Example 1-276] | 80% | 80% | 80% | 90% | 80% | 80% | 80% | 100% | 90% | 100% | 90% | 80% | 100% | 80% | 100% | 100% | 100% | 90% | 100% | 90% | Pre-emergence action against POLCO in % (POLCO; dosage 20 g/ha): 80%; Post-emergence action against ABUTH in % (ABUTH [6]; dosage 5 g/ha): 80%; Pre-emergence action against AVEFA in % (AVEFA): 90%; Post-emergence action against SETVI in % (SETVI [11]; dosage 5 g/ha): 80%; Pre-emergence action against ALOMY (herbicidal activity) (ALOMY [15]): 100%; Pre-emergence action against PHBPU in % (PHBPU [16]): 90%; Pre-emergence action against SETVI in % (SETVI [17]): 100% |
| CC(NC(=O)c1c(C(F)(F)F)ccc(C(=O)Nc2nnnn2C)c1C1CC1)C1CC1 (centres unmarked) [Example 1-292] | 80% | 80% | 80% | 90% | 80% | 90% | 80% | 90% | 100% | 100% | 80% | 90% | 100% | 90% | 100% | 100% | 100% | 100% | 100% | 80% | Post-emergence action against MATIN in % (MATIN [1]; dosage 5 g/ha): 80%; Post-emergence action against ECHCG in % (ECHCG [2]; dosage 5 g/ha): 80%; Post-emergence action against VERPE in % (VERPE [5]; 5 g/ha): 80%; Pre-emergence action against VERPE in % (VERPE [18]; dosage 20 g/ha): 100%; Pre-emergence action against VERPE in % (VERPE [18]; dosage 80 g/ha): 100%; Post-emergence action against PHBPU in % (PHBPU [9]; dosage 5 g/ha): 80%; Pre-emergence action against ALOMY (herbicidal activity) (ALOMY [15]): 90%; Pre-emergence action against PHBPU in % (PHBPU [16]): 80%; Pre-emergence action against SETVI in % (SETVI [17]): 100% |
